Assay results from paper PMC3947011 (ACS chemical biology, 2013).
Like-named read-outs stand apart in the source and are kept apart here.

How the values were obtained:
Format in all cases: cell-based
E. coli (ATCC 25922) = test system: E. coli (ATCC 25922)
[1] = test system: K. pneumoniae (ATCC 13383)
[2] = test system: P. aeruginosa (ATCC 27853)
[3] = test system: Methicillin-resistant S. epidermidis (RP62A)
[4] = test system: Vancomycin-resistant E. faecalis (ATCC 700802)
[5] = test system: Methicillin-resistant S. aureus (ATCC 33591)

## Pexiganan
E. coli (ATCC 25922); complete growth inhibition after 24 h, highest tested 25 μg/mL
  MIC E. coli: 8 µg/mL
E. coli (ATCC 25922); value in parentheses
  MIC E. coli: 3 µM
[1]; 24 h
  MIC K. pneumoniae: 8 µg/mL
[1]; value in parentheses
  MIC K. pneumoniae: 3 µM
[2]; 24 h
  MIC P. aeruginosa: 16 µg/mL
[2]; value in parentheses
  MIC P. aeruginosa: 6 µM
[3]; 24 h
  MIC S. epidermidis: 8 µg/mL
[3]; value in parentheses
  MIC S. epidermidis: 3 µM
[4]; 24 h
  MIC E. faecalis: 32 µg/mL
[4]; value in parentheses
  MIC E. faecalis: 12 µM
[5]; 24 h
  MIC S. aureus: 16 µg/mL
[5]; value in parentheses
  MIC S. aureus: 6 µM
